{
  "source": "patent US9315546B2",
  "about": "“Growth hormone secretatogue receptor antagonists and uses thereof” (The Administrators of the Tulane Educational Fund, priority 2010, dated 2016)",
  "key": {"GOAT": {"target": "T1, GOAT (Homo sapiens, UniProt Q96T53)", "T1 sequence (Q96T53 1-435)": "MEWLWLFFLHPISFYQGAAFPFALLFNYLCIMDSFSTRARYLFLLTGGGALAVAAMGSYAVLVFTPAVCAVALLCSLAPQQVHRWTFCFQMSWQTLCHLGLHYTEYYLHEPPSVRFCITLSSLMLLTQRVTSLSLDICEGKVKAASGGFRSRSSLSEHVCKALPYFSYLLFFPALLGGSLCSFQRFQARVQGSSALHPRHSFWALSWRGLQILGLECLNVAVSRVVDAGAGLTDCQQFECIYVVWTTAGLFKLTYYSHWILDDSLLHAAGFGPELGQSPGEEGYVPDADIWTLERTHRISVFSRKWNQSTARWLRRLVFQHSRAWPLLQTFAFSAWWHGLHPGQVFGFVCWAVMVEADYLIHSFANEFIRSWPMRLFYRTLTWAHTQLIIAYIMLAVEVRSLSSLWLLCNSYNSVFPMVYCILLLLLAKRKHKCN", "assay": "Acyl Transferase activity of GOAT in vitro", "type": "biochemical"}, "[1]": {"target": "T2, hypothalamic ghrelin receptor (Rattus norvegicus, UniProt O08725)", "T2 sequence (O08725 whole entry)": "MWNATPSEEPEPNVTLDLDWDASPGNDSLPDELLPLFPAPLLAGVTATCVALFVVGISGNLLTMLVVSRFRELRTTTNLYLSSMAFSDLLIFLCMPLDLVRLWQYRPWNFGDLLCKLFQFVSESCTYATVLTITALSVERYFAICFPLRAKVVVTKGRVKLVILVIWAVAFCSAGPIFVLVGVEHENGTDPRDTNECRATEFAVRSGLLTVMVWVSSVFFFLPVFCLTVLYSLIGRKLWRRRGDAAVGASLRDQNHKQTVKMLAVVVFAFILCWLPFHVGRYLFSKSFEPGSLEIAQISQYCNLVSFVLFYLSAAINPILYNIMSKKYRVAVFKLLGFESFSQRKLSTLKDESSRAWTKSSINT", "assay": "Food intake and body weight change after icv ghrelin analogs in adult male rats", "type": "in vivo", "design": "from tissue; host or cells: whole animal (adult male rats)", "conditions": "ghrelin analog 10 μg icv; for body weight gain: change over 24 h; for (cumulative) food intake: monitored hourly over 5 h", "protocol": "(§1) In vivo effects were measured on spontaneous and ghrelin-stimulated GH secrtion over a 6-h sampling period, and food intake monitored hourly over a 5-h period and body weight change over 24 h."}, "[2]": {"target": "T2, hypothalamic ghrelin receptor", "assay": "Spontaneous and ghrelin-stimulated GH secretion after icv ghrelin analogs in adult male rats", "type": "in vivo", "design": "from tissue; host or cells: whole animal (adult male rats)", "conditions": "for spontaneous growth hormone secretion / plasma GH levels: ghrelin analog 10 μg icv, 6-h sampling", "protocol": "as §1"}, "GHRH": {"system": "GHRH", "assay": "GH response to GHRH in rats", "type": "in vivo, rat", "conditions": "GHRH 5 μg i.v."}, "GHS-R 1a [3]": {"target": "T3, GHS-R 1a (Rattus norvegicus, UniProt O08725)", "T3 construct": "free-moving rats were i.c.v. injected with either normal saline or GHS-A (5 μg); from tissue; host or cells: whole animal (adult male Sprague Dawley rats)", "T3 sequence (O08725 whole entry)": "as above", "assay": "Spontaneous pulsatile GH secretion in free-moving adult male rats", "type": "in vivo", "protocol": "Adult male Sprague Dawley rats (225-260 g) were purchased from Charles River Canada (St. Constant, Canada) and individually housed on a 12-h light, 12-h dark cycle (lights on, 0600-1800 h) in a temperature (22±1° C.)—and humidity-controlled room. Purina rat chow (Ralston Purina Co., St. Louis, Mo.) and tap water were available ad libitum.\nChronic intracerebroventricular (i.c.v.) and intracardiac venous cannulas were implanted under sodium pentobarbital (50 mg/kg, i.p.) anesthesia using previously described techniques in (2) and (11). The placement of the icy cannulae was verified by both a positive drinking response to i.c.v. carbachol (100 ng/10 μl) injection on the day after surgery and methylene blue dye at the time of death. After surgery, the rats were placed directly in isolation test chambers with food and H2O freely available until body weight returned to preoperative levels (usually within 5-7 d). During this time the rats were handled daily to minimize any stress associated with handling on the day of the experiment. On the test day, food was removed 1.5 h before the start of sampling and was returned at the end.\nThese time points were chosen because they correspond closely to the time of onset of the spontaneous GH secretory episodes, as previously documented in our laboratory (2, 4). Blood samples were withdrawn from 1000-1600 h, as described above; however, no blood sample was withdrawn 5 min after the injections."}, "GHS-R 1a [4]": {"target": "T3, GHS-R 1a", "assay": "Ghrelin-induced GH release in free-moving adult male rats", "type": "in vivo", "conditions": "for GH response to i.c.v. ghrelin: 5 μg antagonist i.c.v. 15 min before 500 ng ghrelin i.c.v.", "protocol": "Adult male Sprague Dawley rats (225-260 g) were purchased from Charles River Canada (St. Constant, Canada) and individually housed on a 12-h light, 12-h dark cycle (lights on, 0600-1800 h) in a temperature (22±1° C.)—and humidity-controlled room. Purina rat chow (Ralston Purina Co., St. Louis, Mo.) and tap water were available ad libitum. Chronic intracerebroventricular (i.c.v.) and intracardiac venous cannulas were implanted under sodium pentobarbital (50 mg/kg, i.p.) anesthesia using previously described techniques in (2) and (11). […] During this time the rats were handled daily to minimize any stress associated with handling on the day of the experiment. On the test day, food was removed 1.5 h before the start of sampling and was returned at the end. […] Both the human ghrelin peptide (provided by Dr. K. Chang, Phoenix Pharmaceuticals, Inc., Belmont, Calif.) and the GHS-A were diluted in normal saline just before use. Blood samples (0.35 ml) were withdrawn every 15 min over a 6-h sampling period (1000-1600 h) from all animals. […] All blood samples were immediately centrifuged, and plasma was separated and stored at −20° C. for subsequent assay of GH. To avoid hemodynamic disturbance, the red blood cells were resuspended in normal saline and returned to the animal after removal of the next blood sample. […] Blood samples were withdrawn from 1000-1600 h, as described above."}, "GHS-R 1a [5]": {"target": "T3, GHS-R 1a", "assay": "Spontaneous and ghrelin-induced food intake in rats", "type": "in vivo", "protocol": "The effects of the GHS-A on both spontaneous and ghrelin-induced food intake and body weight gain were investigated. For the spontaneous experiments, the rats were fasted overnight (1600-1100 h next morning) and were i.c.v.-injected with either normal saline or GHS-A (5 μg) at 1100 h. Food intake was monitored on an hourly basis for 5 h after the initial injection (until 1600 h) and subsequently overnight (1600-0900 h next morning). A measured amount of rat chow pellets was placed in the cage every hour. Spillage was collected by placement of a diaper under the rat cages, and total food consumed for each period was calculated by subtracting uneaten food plus spillage from total given. Body weights were recorded daily at 0900 h. The latency to the onset of the first meal after the injection and the duration of that meal were also monitored.\nFood intake was monitored on an hourly basis as described above. In this experiment, food was removed 1.5 h before the start of the test."}, "[6]": {"target": "Ghrelin/GHRP/GHS Receptor (Rattus norvegicus, UniProt O08725)", "sequence (O08725 whole entry)": "as above", "assay": "In vivo GH release in rat after i.v. peptide (serum GH by RIA)", "protocol": "For the in vivo assay of GH Release in rat, immature female Sprague Dawley rats were obtained from Charles River from Wilmington, Mass. After arrival they were housed at 25° C. with a 14:10 h light:dark cycle. Water and Purina rat chow were available at libitum. Pups were weaned at 21 days of age.\nImmature twenty six day old female Sprague Dawley rats, 3-6 rats per treatment dose, were pretreated with pentobarbital 20 minutes before iv injection of vehicle/peptide or peptide plus stimulator. Injection was made as a 0.1 ml solution. For the non-pentobarbital treated rat assay, peptides were administered iv into the tail vein of conscious rats. All animals were sacrificed by guillotine after iv peptide or vehicle. Trunk blood was collected at +10-15 minutes […], allowed to clot, centrifuged and serum stored until assayed for GH levels by RIA. The GH RIA reagents were distributed by the NIH. Control data was collected from rats treated with only the corresponding vehicle in the absence of peptide or stimulator. Control stimulated data was collected from rats treated with stimulator alone in the absence of any peptide."}, "[7]": {"conditions": "listed as GMA{Dap^3Oct}ghrelinNH2 1-9"}, "[8]": {"conditions": "listed as Gly-Met-Ala-Gly-Ser-(Dap-Oct)-Phe-Leu-Ser-Pro-Glu-His-NH2"}, "[9]": {"conditions": "5 μg i.c.v. before ghrelin 500 ng i.c.v."}, "[10]": {"conditions": "5 μg i.c.v., overnight-fasted animals"}},
  "note": "Where a SMILES comes first, the peptide text is derived from it. Where no end group is shown, it is not given here. [ ]: non-standard residue; d: D form. The star is where a group is joined. d2Nal = N[C@H](Cc1ccc2ccccc2c1)C(=O)O; Octanoyl = CCCCCCCC(=O)*; Dap = NC[C@H](N)C(=O)O",
  "data": [
    {"molecule": "CCCCCCCC(=O)NC[C@H](NC(=O)[C@H](CO)NC(=O)CNC(=O)[C@H](C)NC(=O)[C@H](CCSC)NC(=O)CN)C(=O)N[C@@H](Cc1ccccc1)C(=O)N[C@@H](CC(C)C)C(=O)N[C@@H](CO)C(=O)N1CCC[C@H]1C(=O)N[C@@H](CCC(=O)O)C(=O)N[C@@H](Cc1c[nH]cn1)C(N)=O", "note": "[#3, Gly-Met-Ala-Gly-Ser-(Dap-Oct)-Phe-Leu-Ser-Pro-Glu-His-NH2] (H-GMAGS[Dap](Octanoyl)FLSPEH-NH2; N-terminus assumed)", "values": [
      {"measurement": "inhibition of the Acyl Transferase activity of GOAT", "setting": "GOAT", "result": "ineffective"},
      {"measurement": "body weight gain", "setting": "[1]; [7]", "result": "inhibits"},
      {"measurement": "body weight gain", "setting": "[1]; listed as duodecapeptide", "result": "effective"},
      {"measurement": "(cumulative) food intake", "setting": "[1]", "result": "inhibited food intake"},
      {"measurement": "(cumulative) food intake", "setting": "[1]; [7]", "result": "inhibits"},
      {"measurement": "(cumulative) food intake", "setting": "[1]; [8]", "result": "reduced"},
      {"measurement": "(cumulative) food intake", "setting": "[1]; listed as duodecapeptide", "result": "effective"},
      {"measurement": "decrease in mean plasma GH levels compared with controls", "setting": "[2]; central administration", "result": "3-to-4 fold"},
      {"measurement": "spontaneous growth hormone secretion / plasma GH levels", "setting": "[2]", "result": "inhibited growth hormone secretion"},
      {"measurement": "spontaneous growth hormone secretion / plasma GH levels", "setting": "[2]; listed as GMA duodecapeptide ghrelin analog", "result": "inhibitory activity"},
      {"measurement": "spontaneous growth hormone secretion / plasma GH levels", "setting": "[2]; [8]", "result": "inhibited"},
      {"measurement": "stimulatory action of ghrelin on GH release after pretreatment", "setting": "[2]; pretreatment with analog", "result": "blocked"}
    ]},
    {"molecule": "H[d2Nal][dK]W[dF]K-NH2 [4-His-DβNal-DLys-Trp-DPhe-Lys-NH2]", "values": [
      {"measurement": "GH response to GHRH", "setting": "GHRH", "result": "did not significantly reduce"},
      {"measurement": "1-h GH AUC's of spontaneous GH secretory episodes (1100 h, 1400 h) and overall 6-h GH AUC", "setting": "GHS-R 1a [3]; 5 μg i.c.v.", "result": "significantly reduced"},
      {"measurement": "GH peak frequency, interpeak interval and nadir (cluster analysis)", "setting": "GHS-R 1a [3]; 5 μg i.c.v.", "result": "no significant effect"},
      {"measurement": "GH peak height (cluster analysis)", "setting": "GHS-R 1a [3]; 5 μg i.c.v.", "result": "significant suppression"},
      {"measurement": "amplitude of the spontaneous GH pulses", "setting": "GHS-R 1a [3]; 5 μg i.c.v. 15 min before expected GH bursts", "result": "severely attenuated"},
      {"measurement": "GH response to i.c.v. ghrelin", "setting": "GHS-R 1a [4]", "result": "virtually obliterated"},
      {"measurement": "GH response to i.c.v. ghrelin", "setting": "GHS-R 1a [4]; listed as GHS-A", "result": "abolished"},
      {"measurement": "reduction of GH AUC following i.c.v. ghrelin vs saline-pretreated controls", "setting": "GHS-R 1a [4]; 5 μg i.c.v. pretreatment, ghrelin 500 ng i.c.v.", "result": 15, "unit": "fold"},
      {"measurement": "GH response to i.v. ghrelin", "setting": "GHS-R 1a [4]; 250 μg antagonist i.v. 15 min before 5 μg ghrelin i.v., listed as GHS-A", "result": "strongly blocked"},
      {"measurement": "reduction of GH AUC following i.v. ghrelin vs saline-pretreated controls", "setting": "GHS-R 1a [4]; 250 μg i.v. pretreatment, ghrelin 5 μg i.v.", "result": 5, "unit": "fold"},
      {"measurement": "cumulative food intake after ghrelin, up to 5 h", "setting": "GHS-R 1a [5]; [9]", "result": "significantly suppressed"},
      {"measurement": "ghrelin-stimulated food intake, first hour after injections", "setting": "GHS-R 1a [5]; [9]", "result": "significantly inhibited"},
      {"measurement": "cumulative spontaneous food intake beyond the first hour", "setting": "GHS-R 1a [5]; [10]", "result": "not inhibited"},
      {"measurement": "spontaneous food intake, first hour after injection", "setting": "GHS-R 1a [5]; [10]", "result": "significantly inhibited"},
      {"measurement": "Stimulated GH release", "setting": "[6]; peptide antagonist 30 μg i.v. + stimulator 0.3 μg", "result": "733 ± 85", "unit": "ng/mL"},
      {"measurement": "Stimulated GH release", "setting": "[6]; peptide antagonist 100 μg i.v. + stimulator 1 μg", "result": "818 ± 269", "unit": "ng/mL"}
    ]}
  ]
}
